From patent US10830746B2, “Quantitation of Tamoxifen and metabolites thereof by mass spectrometry” (QUEST DIAGNOSTICS INVESTMENTS INCORPORATED, priority 2014, dated 2020) come the findings set out here.

The series can be described thus: Quantitation of tamoxifen and its metabolites in patient serum by LC-MS/MS. How it is done:
In the following procedure, tamoxifen and its metabolites are extracted from serum. The serum is added to a filter plate, and then mixed with acetonitrile/IS, which then forms a precipitate. The mixture is then placed on a positive pressure manifold, and the organic fraction is passed through to a collection plate. The plate is lidded, and then placed on the Cohesive system for injection onto MS/MS. The MS is in APCI-positive mode. The quantitation is based upon unique parent-product transitions. Those analytes with similar transitions were separated chromatographically.
A 12-point calibration is used for each analyte. Initially, only one standard is made (Std-12), with a series of dilutions performed to generate the remaining standards. The standard (#12) is to be removed from the −70° C. freezer and thawed. While thawing, label twelve 12×75 mm tubes.
Add 3.0 mL of std-12 to tube 12. From this standard, you will follow the table below to create the standard curve. A standard curve is to be generated with each assay. Place the initial standard back in the −60 to −90° C. freezer.
A Thermo LC/MS/MS system containing the following modules was used for this assay:
The extraction is a protein precipitation, followed by filtration. Analysis and quantitation is then performed by LC/MS/MS.
Norendoxifen is extracted from serum using protein precipitation, followed by filtration. Analysis and quantitation is then performed by LC/MS/MS.

4-Hydroxy Tamoxifen: the “Reference Ranges” value (human, in vivo) lay in the range of 0.24 to 5.05 ng/mL. Still for that read-out and setting: as for `CC/C(=C(\c1ccccc1)c1ccc(OCCN(C)C)cc1)c1ccc(O)cc1` [4′-Hydroxy Tamoxifen], the figure is 0.4 to 6.33 ng/mL. Still for that read-out and setting: as for `CC/C(=C(\c1ccccc1)c1ccc(OCCNC)cc1)c1ccccc1` [N-Desmethyl Tamoxifen], the figure is 2.59 to 373.96 ng/mL.

For `CC/C(=C(\c1ccc(O)cc1)c1ccc(OCCNC)cc1)c1ccccc1` [N-Desmethyl-4-Hydroxy Tamoxifen], the “Reference Ranges” value (human, in vivo) was 0.93 to 43.19 ng/mL. On the same count and under the same terms, the same measure for `CCC(=C(c1ccccc1)c1ccc(OCCNC)cc1)c1ccc(O)cc1` [N-Desmethyl-4′-Hydroxy Tamoxifen]: 1.17 to 19.95 ng/mL. In the case of Tamoxifen, for the setting “expected values in serum”, the “Reference Ranges” value was 12.54 to 233.07 ng/mL.
